Data taken from ChEMBL document CHEMBL3352589, “The use of spirocyclic scaffolds in drug discovery” (Bioorg Med Chem Lett, 2014).

Target: 5-hydroxytryptamine receptor 6 (Homo sapiens, UniProt P50406)
Test: Antagonist activity at 5-HT6 receptor (unknown origin)

Chain of 5-hydroxytryptamine receptor 6 (P50406 whole entry): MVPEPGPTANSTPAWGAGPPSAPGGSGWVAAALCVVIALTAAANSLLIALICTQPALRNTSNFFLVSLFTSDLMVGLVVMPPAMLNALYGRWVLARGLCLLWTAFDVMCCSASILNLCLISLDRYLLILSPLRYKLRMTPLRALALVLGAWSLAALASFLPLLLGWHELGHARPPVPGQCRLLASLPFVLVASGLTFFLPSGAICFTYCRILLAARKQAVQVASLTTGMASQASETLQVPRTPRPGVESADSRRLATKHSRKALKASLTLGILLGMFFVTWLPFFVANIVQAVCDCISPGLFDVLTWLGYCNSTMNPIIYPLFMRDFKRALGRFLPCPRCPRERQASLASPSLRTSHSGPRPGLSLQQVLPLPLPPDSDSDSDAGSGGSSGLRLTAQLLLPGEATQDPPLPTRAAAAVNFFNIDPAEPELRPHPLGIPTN

Ki [µM] | SMILES
0.026 | CN1CCc2ccc(N3C(=O)CSC34C(=O)Nc3ccccc34)cc2CC1 (racemic)
0.015 | CN1CCc2ccc(N3C(=O)CSC34C(=O)Nc3ccccc34)cc2CC1 (single isomer, unassigned)
